Test results taken from patent publication US9738634B2, “Heterocyclic amide compound and herbicide” (SYNGENTA PARTICIPATIONS AG, priority 2013, dated 2017).

Experiments:
Type in all cases: in vivo
Details in all cases: treatment dosage 320 g/ha
barnyard grass [1] = test: Test Example 1: weedkilling efficacy, preemergent weed treatment in the submerged state; A: barnyard grass
Outline: (§1)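 Pre-emergence paddy test: weed seeds sown in submerged alluvial soil (4 cm water), 2.5-leaf rice transplanted, water-diluted emulsion applied to water surface at sowing at stated g/ha. Scored at 3 weeks, greenhouse 25–30 °C.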

bulrush [2] = test: Test Example 1: weedkilling efficacy, preemergent weed treatment in the submerged state; B: bulrush
Outline: as §1

oval-leafed pondweed [3] = test: Test Example 1: weedkilling efficacy, preemergent weed treatment in the submerged state; C: oval-leafed pondweed
Outline: as §1

transplanted rice = test: Test Example 1: preemergent weed treatment in the submerged state, effect on crop; a: transplanted rice
Outline: as §1

barnyard grass [4] = test: Test Example 2: weedkilling efficacy, growth period weed treatment in the submerged state; A: barnyard grass
Outline: (§2)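 Seedlings at 1-2 leaves in 4 cm-deep submerged alluvial soil received emulsion formulations on the water surface, dosed per hectare; effects were judged 3 weeks on.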

bulrush [5] = test: Test Example 2: weedkilling efficacy, growth period weed treatment in the submerged state; B: bulrush
Outline: as §2

oval-leafed pondweed [6] = test: Test Example 2: weedkilling efficacy, growth period weed treatment in the submerged state; C: oval-leafed pondweed
Outline: as §2

crabgrass [7] = test: Test Example 3: weedkilling efficacy through soil treatment; D: crabgrass
Outline: (§3)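 Crop and weed responses were judged three weeks after a uniform surface spray of the water-diluted emulsion at the given g/ha rate. Seeds sat beneath about 1.5 cm of sterilized diluvial soil, and boxes stood in a greenhouse at 25 to 30° C.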

green foxtail [8] = test: Test Example 3: weedkilling efficacy through soil treatment; E: green foxtail
Outline: as §3

barnyard grass [9] = test: Test Example 3: weedkilling efficacy through soil treatment; F: barnyard grass
Outline: as §3

wild oat [10] = test: Test Example 3: weedkilling efficacy through soil treatment; G: wild oat
Outline: as §3

black-grass [11] = test: Test Example 3: weedkilling efficacy through soil treatment; H: black-grass
Outline: as §3

Italian ryegrass [12] = test: Test Example 3: weedkilling efficacy through soil treatment; I: Italian ryegrass
Outline: as §3

common wind-grass [13] = test: Test Example 3: weedkilling efficacy through soil treatment; J: common wind-grass
Outline: as §3

Indian mallow [14] = test: Test Example 3: weedkilling efficacy through soil treatment; K: Indian mallow
Outline: as §3

redroot pigweed [15] = test: Test Example 3: weedkilling efficacy through soil treatment; L: redroot pigweed
Outline: as §3

fig-leafed goosefoot [16] = test: Test Example 3: weedkilling efficacy through soil treatment; M: fig-leafed goosefoot
Outline: as §3

chickweed [17] = test: Test Example 3: weedkilling efficacy through soil treatment; N: chickweed
Outline: as §3

birds-eye speedwell [18] = test: Test Example 3: weedkilling efficacy through soil treatment; p: birds-eye speedwell
Outline: as §3

directly sown rice [19] = test: Test Example 3: soil treatment, effect on crop; b: directly sown rice
Outline: as §3

corn [20] = test: Test Example 3: soil treatment, effect on crop; c: corn
Outline: as §3

soybean [21] = test: Test Example 3: soil treatment, effect on crop; d: soybean
Outline: as §3

wheat [22] = test: Test Example 3: soil treatment, effect on crop; e: wheat
Outline: as §3

beet [23] = test: Test Example 3: soil treatment, effect on crop; f: beet
Outline: as §3

rapeseed [24] = test: Test Example 3: soil treatment, effect on crop; g: rapeseed
Outline: as §3

crabgrass [25] = test: Test Example 4: weedkilling efficacy by foliar treatment; D: crabgrass
Outline: (§4)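 Seeds are spot-sown into sterilized diluvial soil and covered with about 1.5 cm of soil. After 14 days' greenhouse growth at 25 to 30° C, plants are sprayed on stems and leaves with diluted emulsion at the stated g/ha rate, then scored at 3 weeks.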

green foxtail [26] = test: Test Example 4: weedkilling efficacy by foliar treatment; E: green foxtail
Outline: as §4

barnyard grass [27] = test: Test Example 4: weedkilling efficacy by foliar treatment; F: barnyard grass
Outline: as §4

wild oat [28] = test: Test Example 4: weedkilling efficacy by foliar treatment; G: wild oat
Outline: as §4

black-grass [29] = test: Test Example 4: weedkilling efficacy by foliar treatment; H: black-grass
Outline: as §4

Italian ryegrass [30] = test: Test Example 4: weedkilling efficacy by foliar treatment; I: Italian ryegrass
Outline: as §4

common wind-grass [31] = test: Test Example 4: weedkilling efficacy by foliar treatment; J: common wind-grass
Outline: as §4

Indian mallow [32] = test: Test Example 4: weedkilling efficacy by foliar treatment; K: Indian mallow
Outline: as §4

redroot pigweed [33] = test: Test Example 4: weedkilling efficacy by foliar treatment; L: redroot pigweed
Outline: as §4

fig-leafed goosefoot [34] = test: Test Example 4: weedkilling efficacy by foliar treatment; M: fig-leafed goosefoot
Outline: as §4

chickweed [35] = test: Test Example 4: weedkilling efficacy by foliar treatment; N: chickweed
Outline: as §4

catchweed = test: Test Example 4: weedkilling efficacy by foliar treatment; O: catchweed
Outline: as §4

birds-eye speedwell [36] = test: Test Example 4: weedkilling efficacy by foliar treatment; p: birds-eye speedwell
Outline: as §4

directly sown rice [37] = test: Test Example 4: foliar treatment, effect on crop; b: directly sown rice
Outline: as §4

corn [38] = test: Test Example 4: foliar treatment, effect on crop; c: corn
Outline: as §4

soybean [39] = test: Test Example 4: foliar treatment, effect on crop; d: soybean
Outline: as §4

wheat [40] = test: Test Example 4: foliar treatment, effect on crop; e: wheat
Outline: as §4

beet [41] = test: Test Example 4: foliar treatment, effect on crop; f: beet
Outline: as §4

rapeseed [42] = test: Test Example 4: foliar treatment, effect on crop; g: rapeseed
Outline: as §4

Structure (SMILES): CC1=C(c2ccccc2)C(=O)N(C(C)(C)C(=O)Nc2cc(Cl)cc(C)n2)CO1 [B-2-42]
- A (barnyard grass) weedkilling efficacy grade (barnyard grass [1]): 5 (weed kill ratio 90% or more, (practically complete withering))
- B (bulrush) weedkilling efficacy grade (bulrush [2]): 5 (weed kill ratio 90% or more, (practically complete withering))
- C (oval-leafed pondweed) weedkilling efficacy grade (oval-leafed pondweed [3]): 5 (weed kill ratio 90% or more, (practically complete withering))
- a (transplanted rice) effect on crop grade (transplanted rice): 4 (weed kill ratio 70% or more, less than 90%)
- A (barnyard grass) weedkilling efficacy grade (barnyard grass [4]): 5 (weed kill ratio 90% or more, (practically complete withering))
- B (bulrush) weedkilling efficacy grade (bulrush [5]): 5 (weed kill ratio 90% or more, (practically complete withering))
- C (oval-leafed pondweed) weedkilling efficacy grade (oval-leafed pondweed [6]): 5 (weed kill ratio 90% or more, (practically complete withering))
- D (crabgrass) weedkilling efficacy grade (crabgrass [7]): 5 (weed kill ratio 90% or more, (practically complete withering))
- E (green foxtail) weedkilling efficacy grade (green foxtail [8]): 5 (weed kill ratio 90% or more, (practically complete withering))
- F (barnyard grass) weedkilling efficacy grade (barnyard grass [9]): 5 (weed kill ratio 90% or more, (practically complete withering))
- G (wild oat) weedkilling efficacy grade (wild oat [10]): 5 (weed kill ratio 90% or more, (practically complete withering))
- H (black-grass) weedkilling efficacy grade (black-grass [11]): 5 (weed kill ratio 90% or more, (practically complete withering))
- I (Italian ryegrass) weedkilling efficacy grade (Italian ryegrass [12]): 5 (weed kill ratio 90% or more, (practically complete withering))
- J (common wind-grass) weedkilling efficacy grade (common wind-grass [13]): 5 (weed kill ratio 90% or more, (practically complete withering))
- K (Indian mallow) weedkilling efficacy grade (Indian mallow [14]): 4 (weed kill ratio 70% or more, less than 90%)
- L (redroot pigweed) weedkilling efficacy grade (redroot pigweed [15]): 3 (weed kill ratio 40% or more, less than 70%)
- M (fig-leafed goosefoot) weedkilling efficacy grade (fig-leafed goosefoot [16]): 4 (weed kill ratio 70% or more, less than 90%)
- N (chickweed) weedkilling efficacy grade (chickweed [17]): 4 (weed kill ratio 70% or more, less than 90%)
- P (birds-eye speedwell) weedkilling efficacy grade (birds-eye speedwell [18]): 5 (weed kill ratio 90% or more, (practically complete withering))
- b (directly sown rice) effect on crop grade (directly sown rice [19]): 4 (weed kill ratio 70% or more, less than 90%)
- c (corn) effect on crop grade (corn [20]): 1 (weed kill ratio 5% or more, less than 20%)
- d (soybean) effect on crop grade (soybean [21]): 0 (weed kill ratio 5% or less (practically no effect))
- e (wheat) effect on crop grade (wheat [22]): 0 (weed kill ratio 5% or less (practically no effect))
- f (beet) effect on crop grade (beet [23]): 4 (weed kill ratio 70% or more, less than 90%)
- g (rapeseed) effect on crop grade (rapeseed [24]): 4 (weed kill ratio 70% or more, less than 90%)
- D (crabgrass) weedkilling efficacy grade (crabgrass [25]): 5 (weed kill ratio 90% or more, (practically complete withering))
- E (green foxtail) weedkilling efficacy grade (green foxtail [26]): 5 (weed kill ratio 90% or more, (practically complete withering))
- F (barnyard grass) weedkilling efficacy grade (barnyard grass [27]): 5 (weed kill ratio 90% or more, (practically complete withering))
- G (wild oat) weedkilling efficacy grade (wild oat [28]): 3 (weed kill ratio 40% or more, less than 70%)
- H (black-grass) weedkilling efficacy grade (black-grass [29]): 5 (weed kill ratio 90% or more, (practically complete withering))
- I (Italian ryegrass) weedkilling efficacy grade (Italian ryegrass [30]): 5 (weed kill ratio 90% or more, (practically complete withering))
- J (common wind-grass) weedkilling efficacy grade (common wind-grass [31]): 5 (weed kill ratio 90% or more, (practically complete withering))
- K (Indian mallow) weedkilling efficacy grade (Indian mallow [32]): 5 (weed kill ratio 90% or more, (practically complete withering))
- L (redroot pigweed) weedkilling efficacy grade (redroot pigweed [33]): 4 (weed kill ratio 70% or more, less than 90%)
- M (fig-leafed goosefoot) weedkilling efficacy grade (fig-leafed goosefoot [34]): 4 (weed kill ratio 70% or more, less than 90%)
- N (chickweed) weedkilling efficacy grade (chickweed [35]): 4 (weed kill ratio 70% or more, less than 90%)
- O (catchweed) weedkilling efficacy grade (catchweed): 5 (weed kill ratio 90% or more, (practically complete withering))
- P (birds-eye speedwell) weedkilling efficacy grade (birds-eye speedwell [36]): 4 (weed kill ratio 70% or more, less than 90%)
- b (directly sown rice) effect on crop grade (directly sown rice [37]): 4 (weed kill ratio 70% or more, less than 90%)
- c (corn) effect on crop grade (corn [38]): 3 (weed kill ratio 40% or more, less than 70%)
- d (soybean) effect on crop grade (soybean [39]): 4 (weed kill ratio 70% or more, less than 90%)
- e (wheat) effect on crop grade (wheat [40]): 0 (weed kill ratio 5% or less (practically no effect))
- f (beet) effect on crop grade (beet [41]): 4 (weed kill ratio 70% or more, less than 90%)
- g (rapeseed) effect on crop grade (rapeseed [42]): 4 (weed kill ratio 70% or more, less than 90%)
